How the values were obtained:
infralimbic cortex = settings: neuropathic mice (Shiers et al., 2018); cited from earlier work
SNI mice = settings: neuropathic mice (Shiers et al., 2018); cited from earlier work
[1] = body temperature after intraperitoneal poly (I:C); type: in vivo, mouse; settings: 1 mg/kg i.p.
cultured DRG neurons = test: Western blot of cultured DRG neurons treated with IFN-α, IFN-β, ISRIB or poly (I:C); type: cell-based, mouse; settings: for AKT phosphorylation / ERK and eIF4E phosphorylation / downstream JAK/STAT signaling pathways / BiP expression or signaling via PKR and downstream p-eIF2α / PKR phosphorylation / mTOR or ribosomal protein S6 phosphorylation: 300 U/mL; for BiP expression or signaling via PKR and downstream p-eIF2α: 1-6 h; for PKR phosphorylation: long exposure (24 h); for mTOR or ribosomal protein S6 phosphorylation: time course of 6 h
Procedure: Primary cell culture of mouse DRG neurons and Western blot. Cultured primary DRG neurons were used to test the effects of IFN-α [(300 units (U)/mL] and IFN-β [(300 units (U)/mL] application. For these experiments, mice were anesthetized with isoflurane and killed by decapitation. Then DRGs, from all spinal levels, were dissected and placed in chilled Hanks balanced-salt solution (HBSS, Invitrogen) until processed. Dorsal root ganglia were digested in 1 mg/mL collagenase A (Roche, Mannheim, Germany) for 25 minutes at 37° C. then subsequently digested in a 1:1 mixture of 1 mg/mL collagenase D and papain (Roche) for 20 minutes at 37° C. After this step, dorsal root ganglia were then triturated in a 1:1 mixture of 1 mg/mL trypsin inhibitor (Roche) and bovine serum albumin (BioPharm Laboratories, Bluffdale, Utah), then filtered through a 70 μm cell strainer (Corning, N.Y.). Cells were pelleted then resuspended in DMEM/F12 with GlutaMAX (Thermo Fisher Scientific, MA) containing 10% fetal bovine serum (FBS; Thermo Fisher Scientific), 5 ng/mL NGF, 1% penicillin and streptomycin, and […] to inhibit mitosis of non-neuronal cells and were distributed evenly in a 6-well plate coated with poly-D-lysine (Becton Dickinson, NJ). DRG neurons were maintained in a 37° C. incubator containing 5% CO2 with a media change every other day. On day 6, DRG neurons were treated with either vehicle, IFN-α or IFN-β for 1, 3, 6 and 24 h. Following treatments, cells were rinsed with chilled 1×PBS buffer, harvested in 200 μL of RIPA lysis buffer (50 mM Tris, pH 7.4, 150 mM NaCl, 1 mM EDTA, pH 8.0, and 1% Triton X-100) containing protease and phosphatase inhibitors (Sigma-Aldrich), and then sonicated for 5 seconds. To clear debris, samples were centrifuged at 14,000 rpm for 15 min at 4° C. Ten to 15 μg of protein was loaded into each well and separated by a 10% SDS-PAGE gel. Proteins were transferred to a 0.45 PVDF membrane (Millipore, MA) at 30 V overnight at 4° C. Subsequently, membranes were blocked with 5% non-fat dry milk in 1× Tris buffer solution containing Tween 20 (TTBS) for at least 2 h. Membranes were washed 3 times for 10 minutes each (3×10) in 1×TTBS, then incubated with primary antibodies overnight at 4° C. The following day, membranes were washed 3×10 each then incubated with the corresponding secondary antibodies at room temperature for 1 h. After incubation, membranes were washed with 1×TTBS 3×10 each. Signals were detected using Immobilon Western Chemiluminescent HRP Substrate (Millipore) and then visualized with Bio-Rad ChemiDoc Touch. Membranes were stripped using Restore Western Blot Stripping buffer (Thermo Fisher Scientific) and reprobed with another antibody. Analysis was performed using Image lab 6.0.1 software for Mac (Bio-Rad, Hercules, Calif.).

mice [2] = test: thermal latency (Hargreaves) after type I IFN or poly (I:C); type: in vivo, mouse; settings: for paw withdrawal latency to thermal stimulation: male mice
Procedure: (§1) Behavior. Mice were housed on 12-hour light/dark cycles with food and water available ad libitum. Mice were randomized to groups from multiple cages to avoid using mice from experimental groups that were cohabitating. Sample size was estimated by performing a power calculation using G*Power (version 3.1.9.2). With 80% power and an expectation of d=2.2 effect size in behavioral experiments, and a set to 0.05, the sample size required was calculated as n=6 per group. The inventors therefore sought to have at least n=6 sample in all behavioral experiments. SD (set at 0.3) for the power calculation was based on previously published mechanical threshold data from the inventors' lab (Moy et al., 2017). Animals were habituated for 1 hour to clear acrylic behavioral chambers before beginning the experiment. For intraplantar injections, drugs were injected in a total volume of 25 μL through a 30-gauge needle. For intraperitoneal injections, drugs were administered in a volume of 100 μL Mechanical paw withdrawal thresholds in mice were measured using the up-down method (Chaplan et al., 1994) with calibrated von Frey filaments (Stoelting Company, WoodDale, Ill.). Thermal latency was measured using a Hargreaves device (IITC Life Science) (Hargreaves et al., 1988) with heated glass settings of 29° C., 40% active laser power, and 20 sec cutoff were used. The experimenter was blinded to the genotype of the mice and the drug condition in all experiments.

mice [3] = test: mechanical paw withdrawal threshold (von Frey) after type I IFN or poly (I:C); type: in vivo, mouse; settings: for hind paw mechanical hypersensitivity: female mice; for hind paw mechanical hypersensitivity / mechanical hypersensitivity to von Frey filament stimulation: i.pl. 300 U/25 μL; for mechanical hypersensitivity to von Frey filament stimulation: male mice
Procedure: as §1

eIF4E [4] = test: immunohistochemistry of p-eIF4E and eIF4E in L5 DRGs; type: in vivo, mouse; settings: WT mice, day 2, 3 hr post 2nd injection
Procedure: For tissues, animals were anesthetized with isoflurane and killed by decapitation, and tissues were frozen in O.C.T. on dry ice. Spinal cords were pressure ejected using chilled 1×PBS. Sections of L4-L5 DRGs ([…]) were mounted onto SuperFrost Plus slides (Thermo Fisher Scientific) and fixed in ice-cold 10% formalin in 1×PBS for 1 h then subsequently washed 3×10 each in 1×PBS and processed for immunohistochemistry (IHC). Slides were permeabilized in 50% ethanol for 30 min. After 30 min, slides were washed 3×10 each in 1×PBS. Tissues were blocked for at least 2 h in 1×PBS and 10% NGS. Primary antibodies against NeuN, peripherin, p-eIF4E^S209 and eIF4E were applied and incubated with DRG sections on slides at 4° C. overnight. Immunoreactivity was visualized after 1 h incubation with Alexa Fluor secondary antibodies at room temperature. Images were taken using an Olympus FluoView 1200 confocal microscope. Images are presented as projections of Z stacks, and they are representative of samples taken from 3 animals.

DRG neurons [5] = test: patch-clamp electrophysiology of DRG neurons exposed to IFN-α; settings: 300 U/mL, ~1 h
eIF4E [6] = test: immunocytochemistry of p-eIF4E in cultured DRG neurons; type: cell-based, mouse; settings: 300 U/mL, one-hour stimulation
Procedure: Immunofluorescence. For primary neuronal cultures, DRG neurons were harvested and cultured for 6 days according to the protocol described above with the exception that cells were distributed evenly on poly-D-lysine-coated 8-well chamber slide with removable wells (cat #12-565-8, Fisher Scientific). After treatments, cells were fixed in ice-cold 10% formalin in 1×PBS for 1 h and processed for immunocytochemistry (ICC). Cells were washed with 1×PBS and permeabilized in 1×PBS containing 10% heat-inactivated normal goat serum (NGS; Atlanta Biologicals, Atlanta, Ga.) and 0.02% Triton X-100 (Sigma) in 1×PBS for 30 min and then blocked in 10% NGS in 1×PBS for 2 h. […] Images were taken using an Olympus FluoView 1200 confocal microscope and analyzed with FIJI for Mac OS X. Images shown are representative of samples taken from 3 separate wells and presented as projections of Z stacks. Using ImageJ, the corrected total cell fluorescence (CTCF) was calculated to determine the intensity of the signal between experimental groups. To do so, the integrated density and the area, as well as the background noise was measured and the CTCF calculated as equal to: the integrated density −(area of selected cell×mean fluorescence of background readings). CTCF values from all experimental treatment groups were normalized to vehicle groups and expressed as normalized CTCF.

DRG neurons [7] = settings: prior work; cited from earlier work
mice [8] = settings: Moy et al. (2017); cited from earlier work
[9] = 1 mg/kg i.p. for 2 consecutive days, 3-24 h after second administration

CN(C)C(=N)N=C(N)N [metformin]
AIS shrinkage in the IL (infralimbic cortex): attenuated
cognitive deficits (SNI mice): attenuated

poly (I:C)
core body temperature [1]: increase in core body temperature
p-ERK, p-eIF4E, p-PKR or p-eIF2α (cultured DRG neurons; direct application 10 μg/mL): did not increase
thermal hypersensitivity (mice [2]; [9]): thermal hypersensitivity
mechanical hypersensitivity (mice [3]; [9]): developed mechanical hypersensitivity
phosphorylated eIF4E immunoreactivity in L5 DRGs (eIF4E [4]): increased phosphorylated eIF4E immunoreactivity
total eIF4E protein in L5 DRGs (eIF4E [4]): without affecting total eIF4E protein

IFN-α
AKT phosphorylation (cultured DRG neurons): stimulated AKT phosphorylation
ERK and eIF4E phosphorylation (cultured DRG neurons): increase
downstream JAK/STAT signaling pathways (cultured DRG neurons): rapidly activated
BiP expression or signaling via PKR and downstream p-eIF2α (cultured DRG neurons): did not modify
PKR phosphorylation (cultured DRG neurons): did not modify
mTOR or ribosomal protein S6 phosphorylation (cultured DRG neurons): did not observe any changes
thermal hypersensitivity (mice [2]; female mice, i.pl. 300 U/25 μL): no significant changes
paw withdrawal latency to thermal stimulation (mice [2]; i.pl. 300 U/25 μL): no significant changes
hind paw mechanical hypersensitivity (mice [3]): increased hind paw mechanical hypersensitivity
mechanical hypersensitivity to von Frey filament stimulation (mice [3]): rapid mechanical hypersensitivity
excitability, number of action potentials elicited by ramp current injections (DRG neurons [5]): elevated excitability
latency to the first spike following ramp current injection (DRG neurons [5]): shortened the latency
resting membrane potential (RMP) (DRG neurons [5]): -47.5±2.5 mV
phosphorylation of eIF4E (ICC) (eIF4E [6]): stimulated phosphorylation of eIF4E

CC(=O)C1=C(O)C=C2Oc3c(C(N)=O)c(O)cc(O)c3[C@]2(C)C1=O [cercosporamide]
IL-6 induced DRG nociceptor excitability (DRG neurons [7]): attenuated
cold hypersensitivity induced by peripheral nerve injury (mice [8]): reduced

B1: IFN-β: Recombinant mouse IFN-β protein (protein, UniProt P01575 22-182, looked up)
Interferon beta: INYKQLQLQERTNIRKCQELLEQLNGKINLTYRADFKIPMEMTEKMQKSYTAFAIQEMLQNVFLVFRNNFSSTGWNETIVVRLLDELHQQTVFLKTVLEEKQEERLTWEMSSTALHLKSYYWRVQRYLKLMKYNSYAWMVVRAEIFRNFLIIRRLTRNFQN
AKT phosphorylation (cultured DRG neurons): stimulated AKT phosphorylation
ERK and eIF4E phosphorylation (cultured DRG neurons): increase
downstream JAK/STAT signaling pathways (cultured DRG neurons): rapidly activated
BiP expression or signaling via PKR and downstream p-eIF2α (cultured DRG neurons): did not modify
PKR phosphorylation (cultured DRG neurons): did not modify
mTOR or ribosomal protein S6 phosphorylation (cultured DRG neurons): did not observe any changes
thermal hypersensitivity (mice [2]; female mice, i.pl. 300 U/25 μL): no significant changes
paw withdrawal latency to thermal stimulation (mice [2]; i.pl. 300 U/25 μL): no significant changes
hind paw mechanical hypersensitivity (mice [3]): increased hind paw mechanical hypersensitivity
mechanical hypersensitivity to von Frey filament stimulation (mice [3]): rapid mechanical hypersensitivity
phosphorylation of eIF4E (ICC) (eIF4E [6]): stimulated phosphorylation of eIF4E
